Legend:
AKSP CRC tumoroid line = assay: 3D CRC tumoroid viability, AKSP model; type: cell-based, mice; conditions: at 5.0 μM, viability after 72 hours
Description: To model different stages of colorectal cancer (CRC), intestinal organoids were derived from genetically engineered mice with the following genotypes Apc^flx/flx (A) and Apc^flx/flx Kra^LSL-G12D Smad4^flx/flx (AKS) and transformed ex vivo by addition of 100 nM 4-OHT for 24 hours. Once the organoids acquired a spheroid morphology characteristic of CRC Tumoroids, trp53 was knocked out in AKS tumoroids using CRISPR-CAS9 technology to generate the AKSP line. CRC tumoroid lines as well as wild type intestinal organoids were seeded onto Matrigel in 96 well plates in triplicates 16 hours before being treated with the indicated compounds at a final concentration of 0.5 μM. 72 hours later, cell viability was assessed using Titerglo® assay. Results of 3D CRC organoid line data for pyrazolo- and pyrrolopyrimidine compounds at 0.5 μm were obtained (FIGS. 25A-G). […] In the AKSP model, at 5.0 μM, the top ten compounds were: APS-8-35-3, APS-8-35-4, APS-6-87, APS-9-3, AD80, APS-8-85-2, APS-8-51-3, APS-9-2, and APS-8-56-4.

RET (WT and M918T) = assay: NanoBRET cell based target engagement assay; conditions: RET-Nluc in HEK 293T cells; for cellular IC50 against RET, ranking in words: pyrazolo- and pyrrolopyrimidine series
Description: Assays were completed in duplicate. […] FIG. 8D is a graph of the cell-based target engagement for the indicated compounds against wild-type and M918T RET. IC50 values were determined based on 8-point titration curves of free ligand. Competition assays were completed in technical triplicate against full-length human RET-Nluc expressed in 293T cells, complexed with an active-site fluorescent tracer.
In this assay, a bioluminescence resonance energy transfer (BRET) signal is generated between nanoLuciferase tagged RET (expressed in HEK 293T cells) and an active-site based fluorescent tracer. […] Using this assay, in vivo binding was determined for a series of compounds against mutant (M918T) and wild-type RET (FIG. 8D).

ptc>dRet^M955T flies = assay: Fly rescue assay (Drosophila MTC model ptc>dRet^M955T); type: in vivo; conditions: compound in fly food; for rescue (percent viability of adult flies, adults/pupae×100): 13 d at 25° C., baseline viability 0%
Description: Kinase-mutated fly stocks were obtained from Bloomington Drosophila Stock Center (BDSC; Bloomington, IN). The active mutant form of Drosophila Ret (dRet^955T) carries an M955T mutation corresponding to the M918T mutation commonly reported for multiple endocrine neoplasia (MEN) type 2B patients12,14,16,34. The ptc-gal4, UAS-GFP;UAS-dRet^M955T/SM5tub-gal80-TM6B transgenic flies were prepared according to standard protocols and crossed with non-transgenic w-flies (BDSC) to generate ptc-gal4, UAS-GFP; UAS-dRet^M955T(ptc>dRet^M955T) flies for chemical screening.
All drugs were synthesized in-house. All compounds were dissolved in DMSO (Sigma-Aldrich; St. Louis, MO) and mixed with semi-defined fly medium (BDSC) to make drug food (0.1% final DMSO concentration). For drug screening, ptc>dRet^M955T embryos were raised until adulthood on drug food for 13 d at 25° C. The number of empty pupal cases (i.e., adults) ? that of total pupal cases (P) to determine % viability. Fly randomization was used throughout the assays.
In this model, compounds are assessed based on their ability to suppress oncogenic Ret^M955T-induced tumors, which can be quantified as ‘rescue’ from lethality. […] The baseline viability of ptc>Ret^1955T flies was calibrated to zero, which creates a high bar for rescue but also reduces false-positive hits. Hundreds of flies are tested per condition (typical n values are […] administered through fly food.

[1] = system: HCC tumor organoids, BC (B-Catenin); assay: 3D HCC tumor organoid viability, BC model; type: cell-based; conditions: 5.0 μM, viability three days post drug administration
Description: (§1) For assays in HCC tumor organoids, 96 well plates were first coated with a 50:50 solution of basal media:Matrigel ([…]), which polymerized for 15 minutes at 37° C. Tumor organoids were taken out of Matrigel, broken, and washed. Tumor organoids were seeded at 1,000 cells per well and were treated the following day with single doses of drugs in technical triplicate. Final DMSO concentrations were kept below 0.5%. Cell viability was measured three days post drug administration with either luminescence from CellTiter-Glo or absorbance at 560 and 590 nm from resazurin. Viability data was analyzed by normalizing individual drug-treated well values to DMSO-treated wells (BC=B-Catenin; SR=sorafenib resistant). Results of 3D HCC cell line data for pyrazolo- and pyrrolopyrimidine compounds at 0.5 μm (FIGS. 22A-F), 0.05 μm (FIGS. 23A-F), and 5.0 μm (FIGS. 24A-F) were obtained. […] In the BC model, at 5.0 μM, the top ten compounds were: APS-8-100-4, APS-8-52-3, APS-8-51-4, APS-7-25-2, APS-8-100-3, APS-8-51-3, APS-8-50-4, APS-8-52-4, and APS-7-38. In the SR model, at 5.0 μM, the top ten compounds were: APS-8-51-3, APS-8-50-4, APS-8-51-4, APS-8-52-3, APS-8-50-3, APS-7-52-2, APS-8-52-4, APS-7-52-1, and APS-8-100-4.

[2] = system: HCC tumor organoids, SR (sorafenib resistant); assay: 3D HCC tumor organoid viability, SR model; type: cell-based; conditions: 5.0 μM, viability three days post drug administration
Description: as §1

For CC(C)n1nc(-c2ccc(NC(=O)Nc3cc(C(F)(C(F)(F)F)C(F)(F)C(F)(F)F)ccc3F)cc2)c2c(N)ncnc21 (centres unmarked) [APS-8-35-3, 1-(4-(4-Amino-1-isopropyl-1H-pyrazolo[3,4-d]pyrimidin-3-yl)phenyl)-3-(2-fluoro-5-(perfluorobutan-2-yl)phenyl)urea], the “ranking by inhibition of cell proliferation, AKSP model” value (“ranking by inhibition … AKSP model” below) (AKSP CRC tumoroid line) was “top ten” and the “cellular IC50 against RET, ranking in words” value (RET (WT and M918T)) was “highest IC50 values”.

For CC(C)n1cc(-c2ccc(NC(=O)Nc3cccc(C(F)(F)C(F)(F)F)c3)cc2)c2c(N)ncnc21 [APS-9-3, 1-(4-(4-Amino-7-isopropyl-7H-pyrrolo[2,3-d]pyrimidin-5-yl)phenyl)-3-(3-(perfluoroethyl)phenyl)urea 2,2,2-trifluoroacetate], the “ranking by inhibition … AKSP model” value (AKSP CRC tumoroid line) was “top ten”.

In the case of CC(C)n1cc(-c2ccc(NC(=O)Nc3ccc(C(F)(F)C(F)(F)F)cc3)cc2)c2c(N)ncnc21 [APS-8-100-4, 1-(4-(4-Amino-7-isopropyl-7H-pyrrolo[2,3-d]pyrimidin-5-yl)phenyl)-3-(4-(perfluoroethyl)phenyl)urea], the “rescue activity in the fly model, in words” value (ptc>dRet^M955T flies) was “exceptional in vivo activity”, the “rescue (percent viability of adult flies, adults/pupae×100)” value (ptc>dRet^M955T flies) was 100% and the “ranking by inhibition of cell proliferation, BC model” value [1] was “top ten”. For the same molecule, the “ranking by inhibition of cell proliferation, SR model” value [2] was “top ten” and the “cellular IC50 against RET, ranking in words” value (RET (WT and M918T)) was “lowest IC50 values among the para-substituted compounds tested”.

For CC(C)n1cc(-c2ccc(NC(=O)Nc3cccc(C(F)(C(F)(F)F)C(F)(F)C(F)(F)F)c3)cc2)c2c(N)ncnc21 (centres unmarked) [APS-8-56-4, 1-(4-(4-Amino-7-isopropyl-7H-pyrrolo[2,3-d]pyrimidin-5-yl)phenyl)-3-(3-(perfluorobutan-2-yl)phenyl)urea], the “ranking by inhibition … AKSP model” value (AKSP CRC tumoroid line) was “top ten”.

With CC(C)n1cc(-c2ccc(NC(=O)Nc3ccc(C(F)(F)F)cc3)cc2)c2c(N)ncnc21 [APS-8-85-2, 1-(4-(4-Amino-7-isopropyl-7H-pyrrolo[2,3-d]pyrimidin-5-yl)phenyl)-3-(4-(trifluoromethyl)phenyl)urea] the “ranking by inhibition … AKSP model” value (AKSP CRC tumoroid line) was “top ten”.

CC(C)n1cc(-c2ccc(NC(=O)Nc3cccc(C(F)(F)F)c3)cc2)c2c(N)ncnc21 [APS-9-2, 1-(4-(4-Amino-7-isopropyl-7H-pyrrolo[2,3-d]pyrimidin-5-yl)phenyl)-3-(3-(trifluoromethyl)phenyl)urea] was tested, and the “ranking by inhibition … AKSP model” value (AKSP CRC tumoroid line) was “top ten”.

CC(C)n1cc(-c2ccc(NC(=O)Nc3cc(C(F)(C(F)(F)F)C(F)(F)C(F)(F)F)ccc3F)cc2)c2c(N)ncnc21 (centres unmarked) [APS-8-35-4, 1-(4-(4-Amino-7-isopropyl-7H-pyrrolo[2,3-d]pyrimidin-5-yl)phenyl)-3-(2-fluoro-5-(perfluorobutan-2-yl)phenyl)urea 2,2,2-trifluoroacetate] was tested, and the “ranking by inhibition … AKSP model” value (AKSP CRC tumoroid line) was “top ten”.

With CC(C)n1cc(-c2ccc(NC(=O)Nc3ccc(C(F)(F)C(F)(F)C(F)(F)F)cc3)cc2)c2c(N)ncnc21.O=C(O)C(F)(F)F [APS-8-51-4, 1-(4-(4-Amino-7-isopropyl-7H-pyrrolo[2,3-d]pyrimidin-5-yl)phenyl)-3-(4-(perfluoropropyl)phenyl)urea 2,2,2-trifluoroacetate] the “rescue activity in the fly model, in words” value (ptc>dRet^M955T flies) was “exceptional in vivo activity”, the “rescue (percent viability of adult flies, adults/pupae×100)” value (ptc>dRet^M955T flies) was 100% and the “ranking by inhibition of cell proliferation, BC model” value [1] was “top ten”. The “ranking by inhibition of cell proliferation, SR model” value [2] was “top ten”.

With CC(C)n1nc(-c2ccc(NC(=O)Nc3cc(C(F)(F)F)ccc3F)cc2)c2c(N)ncnc21 [AD80, 1-(4-(4-amino-1-isopropyl-1H-pyrazolo[3,4-d]pyrimidin-3-yl)phenyl)-3-(2-fluoro-5-(trifluoromethyl)phenyl)urea, reference compound] the “rescue (percent viability of adult flies, adults/pupae×100)” value (ptc>dRet^M955T flies) was 80%, the “ranking by inhibition … AKSP model” value (AKSP CRC tumoroid line) was “top ten” and the “cellular IC50 wild-type RET versus M918T mutant, in words” value (RET (WT and M918T)) was “slightly lower IC50 value for wild-type RET over mutant”.

CC(C)n1cc(-c2ccc(NC(=O)Nc3cc(C(F)(F)F)ccc3F)cc2)c2c(N)ncnc21 [APS-6-87, 1-(4-(4-Amino-7-isopropyl-7H-pyrrolo[2,3-d]pyrimidin-5-yl)phenyl)-3-(2-fluoro-5-(trifluoromethyl)phenyl)urea] was tested, and the “ranking by inhibition … AKSP model” value (AKSP CRC tumoroid line) was “top ten”.
